Data: ChEMBL document CHEMBL1145252, “Macrolactonization catalyzed by the terminal thioesterase domain of the nonribosomal peptide synthetase responsible for lichenysin biosynthesis” (Bioorg Med Chem Lett, 2005)

Legend:
[1] = Michaelis-Menten constant for the hydrolysis of the lipopeptide SNAC by the licC thioesterase
[2] = Michaelis-Menten constant for the cyclization of the lipopeptide SNAC by the licC thioesterase
[3] = Catalytic activity for the cyclization of the lipopeptide SNAC by the surfactin thioesterase
[4] = Catalytic activity for the hydrolysis of the lipopeptide SNAC by the thioesterase
[5] = Michaelis-Menten constant for the cyclization of the lipopeptide SNAC by the licC thioesterase; nd = not determined.
[6] = Ratio of Michaelis-Menten constant to that of catalytic activity by the licC thioesterase
[7] = Catalytic activity for the hydrolysis of the lipopeptide SNAC by the licC thioesterase

Structure (SMILES) | Km [1] | Km [2] | further results
CC[C@H](C)[C@H](NC(=O)[C@@H](CC(C)C)NC(=O)[C@H](CC(=O)O)NC(=O)[C@@H](NC(=O)[C@@H](CC(C)C)NC(=O)[C@H](CC(C)C)NC(=O)[C@H](CCC(N)=O)NC(=O)C[C@@H](C)O)C(C)C)C(=O)SCCNC(C)=O | 8.13 µM | 6.83 µM | K cat [3]: 1.77 s⁻¹; K cat [4]: 1.57 s⁻¹
CC[C@H](C)[C@H](NC(=O)[C@@H](CC(C)C)NC(=O)[C@H](CC(=O)O)NC(=O)[C@@H](NC(=O)[C@@H](CC(C)C)NC(=O)[C@H](CC(C)C)NC(=O)[C@H](CCC(N)=O)NC(=O)CCN)C(C)C)C(=O)SCCNC(C)=O | 9.41 µM | – | Km [5]: Not detected; Ratio [6]: 17.3; K cat [7]: 2.71 s⁻¹
CC[C@H](C)[C@H](NC(=O)[C@@H](CC(C)C)NC(=O)[C@H](C)NC(=O)[C@@H](NC(=O)[C@@H](CC(C)C)NC(=O)[C@H](CC(C)C)NC(=O)[C@H](CCC(N)=O)NC(=O)C[C@@H](C)O)C(C)C)C(=O)SCCNC(C)=O | 8.17 µM | – | –
CC[C@H](C)[C@H](NC(=O)[C@@H](C)NC(=O)[C@H](CC(=O)O)NC(=O)[C@@H](NC(=O)[C@@H](CC(C)C)NC(=O)[C@H](CC(C)C)NC(=O)[C@H](CCC(N)=O)NC(=O)C[C@@H](C)O)C(C)C)C(=O)SCCNC(C)=O | 263 µM | 257 µM | –
CC[C@H](C)[C@H](NC(=O)[C@@H](CC(C)C)NC(=O)[C@H](CC(=O)O)NC(=O)[C@@H](NC(=O)[C@@H](C)NC(=O)[C@H](CC(C)C)NC(=O)[C@H](CCC(N)=O)NC(=O)C[C@@H](C)O)C(C)C)C(=O)SCCNC(C)=O | 4.86 µM | 5.1 µM | –
CC(=O)NCCSC(=O)[C@H](C)NC(=O)[C@@H](CC(C)C)NC(=O)[C@H](CC(=O)O)NC(=O)[C@@H](NC(=O)[C@@H](CC(C)C)NC(=O)[C@H](CC(C)C)NC(=O)[C@H](CCC(N)=O)NC(=O)C[C@@H](C)O)C(C)C | 191 µM | – | –
CC[C@H](C)[C@H](NC(=O)[C@@H](CC(C)C)NC(=O)[C@H](CC(=O)O)NC(=O)[C@@H](NC(=O)[C@@H](CC(C)C)NC(=O)[C@H](CC(C)C)NC(=O)[C@H](C)NC(=O)C[C@@H](C)O)C(C)C)C(=O)SCCNC(C)=O | 29 µM | 29.9 µM | –
CC[C@H](C)[C@H](NC(=O)[C@@H](CC(C)C)NC(=O)[C@H](CC(=O)O)NC(=O)[C@@H](NC(=O)[C@@H](CC(C)C)NC(=O)[C@H](CC(C)C)NC(=O)[C@H](CCC(N)=O)NC(=O)C[C@H](C)O)C(C)C)C(=O)SCCNC(C)=O | 12 µM | – | Km [5]: Not detected; Ratio [6]: 19.5; K cat [7]: 3.89 s⁻¹
CC[C@H](C)[C@H](NC(=O)[C@@H](CC(C)C)NC(=O)[C@H](CC(=O)O)NC(=O)[C@H](C)NC(=O)[C@@H](CC(C)C)NC(=O)[C@H](CC(C)C)NC(=O)[C@H](CCC(N)=O)NC(=O)C[C@@H](C)O)C(=O)SCCNC(C)=O | 8.05 µM | 9.35 µM | –
CC[C@H](C)[C@H](NC(=O)[C@@H](CC(C)C)NC(=O)[C@H](CC(=O)O)NC(=O)[C@@H](NC(=O)[C@@H](CC(C)C)NC(=O)[C@H](C)NC(=O)[C@H](CCC(N)=O)NC(=O)C[C@@H](C)O)C(C)C)C(=O)SCCNC(C)=O | 16.9 µM | 15.2 µM | –
